From US4168206A, “Impregnated disk method for testing antifungal susceptibility” (Philadelphia College of Osteopathic Medicine, priority 1977, dated 1979)
Values after ≈ are worked out from the molar mass of the structure shown. Where two headings read alike, the source gives them in different places.

Legend:
Type in all cases: cell-based
Candida albicans [1] = experiment: Minimum fungicidal concentration by disk method; details: 48 h
Experimental: Minimum fungicidal concentration is defined as the lowest concentration of antifungal agent from which subcultures were negative or where no overgrowth occurs. In tests of Candida albicans, the minimum inhibitory concentration can usually be determined at about 24 hours. Minimum fungicidal concentration may be determined by incubation for an additional 24 hours. At concentrations below the minimum fungicidal concentration, overgrowth occurs by 48 hours.
(§1) The minimal fungicidal concentrations of amphotericin B for the first 6 isolates of Candida albicans listed in Table 1 were determined by incubating the disks and organisms for 48 hours. At concentrations below the minimum fungicidal concentration, overgrowth occurred by 48 hours.

Trichosporon sp. [2] = experiment: MIC by broth dilution method, Trichosporon sp.; details: Trichosporon, read-out: Minimum Inhibitory Concentration, Broth
Excerpt: (§2) The preparation of the nutrient media, the antifungal agents and the fungi to be tested in the present invention are similar to those reported in S. Shadomy and A. Espinel-Ingroff, "Susceptibility Testing Of Antifungal Agents", Ch. 63, pp. 569-574 in E. H. Lennett, E. H. Spaulding, and J. P. Truant, Eds., Manual Of Clinical Microbiology, 2nd Ed., American Society for Microbiology, Washington, D.C. (1974). This publication describes the susceptibility testing of antifungal agents, namely, amphotericin B, nystatin and 5-fluoro-cytosine (5-FC), by the "broth dilution method" and the "semisolid agar dilution method". At pages 570-571, it is stated:
(§3) In 10 duplicate runs with each strain tested, the variation in minimum inhibitory concentration averaged ±0.05 μg/ml.
(§4) *Broth dilution method conducted in accordance with S. Shadomy and E.
(§5) Espinel-Ingroff, "Susceptibility Testing of Antifungal Agents", Ch. 63,
(§6) pp. 569-574 in E. H. Spaulding and J. P. Truant, Eds., Manual Of Clinical
(§7) Microbiology, 2nd Ed., American Society for Microbiology, Washington, […]

C. tropicalis = experiment: MIC by impregnated disk method, Candida tropicalis; details: Candida tropicalis, read-out: Minimum Inhibitory Concentration, Disk
Experimental: (§8) Stock solutions of the antifungal agents to be tested are preferably prepared by diluting the antifungal agents in the proper nutrient medium. It is presently preferred to prepare dilutions in 10 ml of the proper medium to give the following final concentrations when applied to the disks (all quantities in micrograms per milliliter): 0.05, 0.08, 0.09, 0.1; 0.1 increment increases to 0.9, 1.0; 0.5 increment increases to 10.0; and 12.0, 14.0, 20.0, 25.0 and 50.0. Disks have been prepared by placing 0.05 ml of the above dilutions of antifungal agent containing medium on 6.5 mm diameter disks in 0.01 or 0.02 ml increments. The impregnated disks are then allowed to dry at a temperature preferably below about 10° C. […] The disks may also be dried by a lyophilization or freeze drying process.
(§9) To perform the tests in accordance with the present inventions, disks impregnated with various concentrations of antifungal agent and nutrient medium and a control disk impregnated only with the corresponding nutrient medium are placed on the fungus to be tested which has been applied to the non-nutrient medium. The disks are the inoculated non-nutrient medium are then incubated at a suitable temperature for a sufficient time to promote growth of the fungus. Any temperature is suitable if it will promote growth of the fungus without adversely affecting the fungus or the activity of the antifungal agent or agents tested. The time of incubation can be determined by observing the extent of growth around the control disk. […] The zones of growth or inhibition around the disks were read at 6, 12, 24, 36 and 48 hours after the disks were placed on the tested fungus.
(§10) The minimum inhibitory concentration is defined as the lowest concentration of antifungal agent which inhibits visible growth. […]
(§11) Several test disks and a control disk were placed in each petri dish containing the inoculated agar. The disks and petri dishes were then incubated at 29° C. and the minimum inhibitory concentration of the various concentrations of the antifungal agents were read at 6, 12, 24, 36 and 48 hours. […]

Trichosporon sp. [3] = experiment: MIC by impregnated disk method, Trichosporon sp.; details: Trichosporon, read-out: Minimum Inhibitory Concentration, Disk
Experimental: as §8, §9, §10, §11

C. parapsilosis [4] = experiment: MIC by impregnated disk method, Candida parapsilosis; details: Lodderomyces parapsilosis
Experimental: as §8, §9
(§12) The minimum inhibitory concentration is defined as the lowest concentration of antifungal agent which inhibits visible growth. The disks containing concentrations of antifungal agents below the minimum inhibitory concentration show circumscribed growth of the fungus around the disk. Disks containing concentrations of antifungal agent at or above the minimum inhibitory concentration show no circumscribed growth.
(§13) Clinical isolates of various fungi listed in Table 1 were obtained from different patients diagnosed as having fungal infections. The fungal inocula were prepared by using a 24-48 hour cultures grown in yeast nitrogen base containing 1% glucose and 0.15% asparagine. After centrifuging, the supernatant was removed, the sedimented cells were washed twice with sterile distilled water and a cell suspension was adjusted to 80% transmission at 520 nm using a Beckman DB-GT grating spectrophotometer.
(§14) Sterile liquified 2% purified agar was placed in petri dishes and allowed to harden. The surface of the agar was inoculated with a sterile cotton swab saturated with a suspension of an organism. The uniformly swabbed plates were then allowed to dry.
(§15) Disks were prepared using the dilutions described above for amphotericin B, nystatin and 5-fluorocytosine. 0.05 ml of the dilutions of each antifungal agent diluted with the appropriate nutrient medium were pipetted on 6.5 mm diameter disks. The disks were dried at 4° C. after each application. Control disks were also prepared.
(§16) Several test disks and a control disk were placed in each petri dish containing the inoculated agar. The disks and petri dishes were then incubated at 29° C. and the minimum inhibitory concentration of the various concentrations of the antifungal agents were read at 6, 12, 24, 36 and 48 hours.
as §3

Candida albicans [5] = experiment: Susceptibility to combination of antifungal agents on disks (Example 2); details: Candida albicans isolate
Excerpt: The method of the present invention also may be used to test combinations of antifungal agents. In this method, more than one antifungal agent of known concentration is impregnated in each test disk.
Each disk is impregnated with a particular known concentration of at least one particular antifungal agent, except for the control disks. When the susceptibility of a fungus to combinations of antifungal agents is being tested, more than one antifungal agent is impregnated in each test disk.
The susceptibility of two other isolates to combinations of antifungal agents were tested by combining more than one antifungal agent on each test disk. A series of test disks were prepared containing various combinations of antifungal agents in various concentrations and were used in the method of the present invention. The results of this procedure are summarized in the following specific, non-limiting examples:
This is a significant reduction in amphotericin B.

Candida albicans [6] = experiment: Minimum fungicidal concentration by broth dilution method
Excerpt: as §2, §1

Cryptococcus neoformans = experiment: MIC by impregnated disk method, Cryptococcus neoformans; details: Cryptococcus neoformans
Experimental: as §8, §9, §12, §13, §14, §15, §16, §3

C. parapsilosis [7] = experiment: MIC by broth dilution method, Candida parapsilosis; details: Lodderomyces parapsilosis
Excerpt: as §2, §3, §4, §5, §6, §7

Compound `C[C@@H]1[C@H](O)[C@@H](C)/C=C/C=C/C=C/C=C/C=C/C=C/C=C/[C@H](O[C@@H]2O[C@H](C)[C@@H](O)[C@H](N)[C@@H]2O)C[C@@H]2O[C@](O)(C[C@@H](O)C[C@@H](O)[C@H](O)CC[C@@H](O)C[C@@H](O)CC(=O)O[C@H]1C)C[C@H](O)[C@H]2C(=O)O` [Amphotericin B, amphotericin B] has an MFC (Candida albicans [1]; isolate 3, read-out: Minimum Fungicidal Concentration, Disk) of 0.9 µg/mL (≈ 0.974 µM), an MFC (Candida albicans [1]; isolate 4, read-out: Minimum Fungicidal Concentration, Disk) of 0.9 µg/mL (≈ 0.974 µM) and an MFC (Candida albicans [1]; isolate 6, read-out: Minimum Fungicidal Concentration, Disk) of 5 µg/mL (≈ 5.41 µM). For the same compound, the MFC (Candida albicans [1]; read-out: Minimum Fungicidal Concentration, Disk, isolate 1) was 1.4 µg/mL (≈ 1.52 µM), the MFC (Candida albicans [1]; read-out: Minimum Fungicidal Concentration, Disk, isolate 2) was 1.6 µg/mL (≈ 1.73 µM) and the MFC (Candida albicans [1]; read-out: Minimum Fungicidal Concentration, Disk, isolate 5) was 1.8 µg/mL (≈ 1.95 µM). The MIC (Trichosporon sp. [2]) was 1.1 µg/mL (≈ 1.19 µM), the MIC (C. tropicalis) was 0.7 µg/mL (≈ 0.758 µM) and the MIC (Trichosporon sp. [3]) was 0.9 µg/mL (≈ 0.974 µM). For the same compound, the MIC (C. parapsilosis [4]; read-out: Minimum Inhibitory Concentration, Disk, C. parapsilosis isolate 1) was 0.5 µg/mL (≈ 0.541 µM), the MIC (C. parapsilosis [4]; read-out: Minimum Inhibitory Concentration, Disk, C. parapsilosis isolate 2) was 0.6 µg/mL (≈ 0.649 µM) and the “amphotericin B susceptibility” value (Candida albicans [5]; alone, previously tested) was 0.8 µg/mL. For the same compound, the “amphotericin B susceptibility” value (Candida albicans [5]; in combination with tetracycline) was 0.2 µg/mL, the MFC (Candida albicans [6]; isolate 1) was 1.5 µg/mL (≈ 1.62 µM) and the MFC (Candida albicans [6]; isolate 2) was 1.6 µg/mL (≈ 1.73 µM). It also gave an MFC (Candida albicans [6]; isolate 3) of 0.8 µg/mL (≈ 0.866 µM), an MFC (Candida albicans [6]; isolate 4) of 1.1 µg/mL (≈ 1.19 µM) and an MFC (Candida albicans [6]; isolate 5) of 1.6 µg/mL (≈ 1.73 µM). The MFC (Candida albicans [6]; isolate 6) was 6.5 µg/mL (≈ 7.03 µM), the MIC (Cryptococcus neoformans; read-out: Minimum Inhibitory Concentration, Disk, C. neoformans isolate 2) was 0.2 µg/mL (≈ 0.216 µM) and the MIC (Cryptococcus neoformans; read-out: Minimum Inhibitory Concentration, Disk, C. neoformans isolate 3) was 0.5 µg/mL (≈ 0.541 µM). It also gave an MIC (Cryptococcus neoformans; read-out: Minimum Inhibitory Concentration, Disk, Cryptococcus neoformans isolate 1) of 0.4 µg/mL (≈ 0.433 µM), an MIC (C. parapsilosis [7]; read-out: Minimum Inhibitory Concentration, Broth, C. parapsilosis isolate 1) of 0.8 µg/mL (≈ 0.866 µM) and an MIC (C. parapsilosis [7]; read-out: Minimum Inhibitory Concentration, Broth, C. parapsilosis isolate 2) of 0.6 µg/mL (≈ 0.649 µM).
